Tested on: rat spinal cord motor neurones
Assay: Neurite growth of spinal cord motor neurones in primary culture (anti β-Tubulin, In Cell Analyzer)
Type: cell-based
Description: Rat spinal motor neurones were prepared according to the method described by Martinou et al., 1992 (Martinou J C, Martinou I, Kato AC Cholinergic differentiation factor (CDF/LIF) promotes survival of isolated rat embryonic motoneurons in vitro. Neuron. 1992 April; 8(4):737-44). Briefly, pregnant female Wistar rats of 15 days gestation, were killed by cervical dislocation and the foetuses were removed from the uterus. Their spinal cords were removed and placed in ice-cold medium of Leibovitz (L15, Invitrogen, 11415-049) containing 1% of bovine serum albuminutes (BSA fatty acid free, Eurobio, Les Ulis, France, GXXBSA01-65). Meninges were carefully removed.
The spinal motor neurones were dissociated by trypsinisation for 20 minutes at 37° C. (trypsin EDTA 10× Invitrogen 15400054) diluted in PBS without calcium and magnesium (Invitrogen 2007-03). The reaction was stopped by the addition of Dulbecco Modified Eagle's Media (DMEM, Invitrogen 21969-035) containing DNase I grade II (0.1 mg/ml Roche diagnostic 104159) and 10% foetal calf serum (FCS, Invitrogen 10270098). The suspension was then mechanically dissociated by 3 passages through a 10 ml pipette. Cells were then centrifuged at 580 g for 10 minutes at room temperature. The pellet of dissociated cells was re-suspended in L15 medium and the resulting suspension was enriched in motor neurones by centrifugation at 180×g for 10 minutes at room temperature on a layer of BSA solution (3.5%) in L15 medium. The supernatant was discarded and the pellet was re-suspended in L15 medium supplemented with DNase I (1%). Then the suspension was layered over a cushion of Optiprep (d: 1.06 g/ml; Abcys, Paris, France; 1030061) and centrifuged at 335×g for 15 minutes at room temperature. The upper phase, containing the purified motor neurones, was collected, re-suspended with L15 medium and centrifuged at 800×g for 10 minutes at room temperature. The cell pellet was finally resuspended in a defined culture medium consisting of neurobasal medium supplemented with 2% B27, 2 mM L-Glutamine and Penicillin 50 Ul/ml-Streptomycin 50 μg/ml. Viable cells were counted in a Neubauer cytometer using the trypan blue exclusion test (Sigma T8154) then plated at 30 000 cells/well in 96 well-plates (pre-coated with poly-1-lysine; Nunclon, Invitrogen P5899) and cultured at 37° C. in a humidified air (95%) CO2 (5%) atmosphere.
The culture medium was changed into a defined culture medium after a 12 hours incubation period following the conditions described below:
BDNF 50 ng/ml and 10 ng/ml (in 0.1% DMSO)
After 6 hours, 12 hours and 24 hours of incubation with, cells were fixed for 5 minutes in an ethanol/acetic acid solution (95%/5%) at −20° C. and rinsed 3 times in PBS.
Motor neurones and sensory neurones were labelled by monoclonal anti β-Tubulin antibody (Sigma T8660) diluted at 1:400 in incubation solution (PBS with 5% of FCS and 0.1% of saponin, Sigma S-7900). This antibody specifically labels neurone cell bodies and neurites.
After 2 hours of incubation, the cells were washed in PBS and incubated with Alexa Fluor 488 goat anti mouse IgG (Molecular Probes A11001) diluted at 1:300 in incubation solution to reveal the 8-Tubulin III antibodies.
Analysis of the total length of neurones labelled with anti β-Tubulin antibodies (neurones) were carried out using In Cell Analyzer 1000 3.2.Workstation software.
The results were expressed in percentage compared to the vehicle. Comparison of groups was carried out using the unpaired T test.

## CC12CCC3C(C1CCC2=O)[C@@H](O)C[C@H]1C[C@@H](O)CCC31C (stereo partly drawn) [Compound 7β-OH-EPIA, 7β-hydroxy-EPIAndrosterone]
10^−4 M, 6 hours
  Neurites length per field, % Vehicle: 124%
  Neurites length per field, Mean: 315.9 μm
10^−4 M, 12 hours
  Neurites length per field, % Vehicle: 142%
  Neurites length per field, Mean: 602.4 μm
10^−4 M, 24 hours
  Neurites length per field, % Vehicle: 87%
  Neurites length per field, Mean: 188.4 μm
10^−5 M, 6 hours
  Neurites length per field, % Vehicle: 115%
  Neurites length per field, Mean: 293.3 μm
10^−5 M, 12 hours
  Neurites length per field, % Vehicle: 161%
  Neurites length per field, Mean: 680.9 μm
10^−5 M, 24 hours
  Neurites length per field, % Vehicle: 93%
  Neurites length per field, Mean: 200.9 μm
10^−6 M, 6 hours
  Neurites length per field, % Vehicle: 139%
  Neurites length per field, Mean: 354.5 μm
10^−6 M, 12 hours
  Neurites length per field, % Vehicle: 137%
  Neurites length per field, Mean: 580.3 μm
10^−6 M, 24 hours
  Neurites length per field, % Vehicle: 104%
  Neurites length per field, Mean: 224.8 μm
10^−7 M, 6 hours
  Neurites length per field, % Vehicle: 138%
  Neurites length per field, Mean: 350.5 μm
10^−7 M, 12 hours
  Neurites length per field, % Vehicle: 137%
  Neurites length per field, Mean: 956.7 μm
10^−7 M, 24 hours
  Neurites length per field, % Vehicle: 126%
  Neurites length per field, Mean: 271.7 μm
10^−8 M, 6 hours
  Neurites length per field, % Vehicle: 150%
  Neurites length per field, Mean: 382.4 μm
10^−8 M, 12 hours
  Neurites length per field, % Vehicle: 179%
  Neurites length per field, Mean: 759.0 μm
10^−8 M, 24 hours
  Neurites length per field, % Vehicle: 174%
  Neurites length per field, Mean: 374.6 μm
10^−9 M, 6 hours
  Neurites length per field, % Vehicle: 188%
  Neurites length per field, Mean: 479.3 μm
10^−9 M, 12 hours
  Neurites length per field, % Vehicle: 180%
  Neurites length per field, Mean: 764.9 μm
10^−9 M, 24 hours
  Neurites length per field, % Vehicle: 123%
  Neurites length per field, Mean: 265.9 μm
